Measurements published in patent US10464902B1, “Multi-tyrosine kinase inhibitors derivatives and methods of use” (Ontogenesis, LLC, priority 2015, dated 2019).
Read-outs that look alike come from different tables or passages of the source.

Assays:
[1] = system: subretinal choroidal neovascularization (CNV); experiment: Subretinal choroidal neovascularization model after intravitreal injection (virtual example); format: in vivo, mammal (preferably a pigmented rabbit or a primate); conditions: intravitreal 50 uL, 10-20 mg/mL
Experimental: The first solution was then added to a saturated fatty acid (e.g. octanoic acid) combined with lecithin or lecithin derivatives (e.g. phosphatidyl choline), a glycerol fatty acid ester (e.g. propylene glycol fatty acid esters such as polyoxyethyleneglycerol triricinoleate), a sorbitan fatty acid ester (e.g. Span® 20, Span® 80) or a olyoxylethylene sorbitan fatty acid ester (e.g. Tween® 20, Tween® 80), and optionally a co-surfactant (e.g. propylene glycol, glycerol, PEG 400, 1,2-propanediol), which were then solubilized as a microemulsion using commercial lipoemulsion techniques (e.g. Intralipid®, Abbolipid). […] 50 uL of either Lucentis® or Eylea® was administered into the remaining eye of the mammal. 2 weeks after administration a subretinal choroidal neovascularization (CNV) was caused in the eyes of the mammal using techniques explained in Qui G et al., A new model of experimental subretinal neovascularization in the rabbit, Exp Eye Res, 2006 July, 83(1), 141-152. 6 weeks after subretinal CNV eyes of the mammal were sacrificed for examination.

[2] = system: intraocular proliferative retinopathy; experiment: Virtual discovery: intravitreal injection, intraocular proliferative retinopathy; format: in vivo
Excerpt: With the onset of proliferative retinopathy however conventional anti-VEGF therapy causes increased fibrosis. Van Geest R. J. et al., A shift in the balance of vascular endothelial growth factor and connective tissue growth factor by bevacizumab causes the angiofibrotic switch in proliferative diabetic retinopathy Br J Ophthalmol, 2012 April, 96(4), 587-90. […]. The suppression of intraocular proliferative retinopathy in turn suppresses fibrotic induction and the most severe manifestations of proliferative eye disease. This suppression also is virtually discovered to occur when the methyl of the preferred embodiments is replaced by any alkyl group. […]. As diabetic macular edema is amenable to anti-VEGF therapy, its use in patients with preproliferative severe peripheral ischemic disease, and or patients with early proliferative disease may enhance the onset of fibrovascular proliferative morbidity, whereas the present invention using MTKIs combining VEGF suppression with c-MET suppression may both reduce diabetic macular edema and suppress diabetic fibrovascular proliferation.

VEGFR [3] = experiment: Virtual discovery: suppression of VEGFR; conditions: virtually discovered
VEGFR2 [4] = target: T1, VEGFR2 (Homo sapiens (Human), UniProt P35968); conditions: human umbilical vein endothelial cells; cited from earlier work
Target sequence in this assay (P35968 20-1356): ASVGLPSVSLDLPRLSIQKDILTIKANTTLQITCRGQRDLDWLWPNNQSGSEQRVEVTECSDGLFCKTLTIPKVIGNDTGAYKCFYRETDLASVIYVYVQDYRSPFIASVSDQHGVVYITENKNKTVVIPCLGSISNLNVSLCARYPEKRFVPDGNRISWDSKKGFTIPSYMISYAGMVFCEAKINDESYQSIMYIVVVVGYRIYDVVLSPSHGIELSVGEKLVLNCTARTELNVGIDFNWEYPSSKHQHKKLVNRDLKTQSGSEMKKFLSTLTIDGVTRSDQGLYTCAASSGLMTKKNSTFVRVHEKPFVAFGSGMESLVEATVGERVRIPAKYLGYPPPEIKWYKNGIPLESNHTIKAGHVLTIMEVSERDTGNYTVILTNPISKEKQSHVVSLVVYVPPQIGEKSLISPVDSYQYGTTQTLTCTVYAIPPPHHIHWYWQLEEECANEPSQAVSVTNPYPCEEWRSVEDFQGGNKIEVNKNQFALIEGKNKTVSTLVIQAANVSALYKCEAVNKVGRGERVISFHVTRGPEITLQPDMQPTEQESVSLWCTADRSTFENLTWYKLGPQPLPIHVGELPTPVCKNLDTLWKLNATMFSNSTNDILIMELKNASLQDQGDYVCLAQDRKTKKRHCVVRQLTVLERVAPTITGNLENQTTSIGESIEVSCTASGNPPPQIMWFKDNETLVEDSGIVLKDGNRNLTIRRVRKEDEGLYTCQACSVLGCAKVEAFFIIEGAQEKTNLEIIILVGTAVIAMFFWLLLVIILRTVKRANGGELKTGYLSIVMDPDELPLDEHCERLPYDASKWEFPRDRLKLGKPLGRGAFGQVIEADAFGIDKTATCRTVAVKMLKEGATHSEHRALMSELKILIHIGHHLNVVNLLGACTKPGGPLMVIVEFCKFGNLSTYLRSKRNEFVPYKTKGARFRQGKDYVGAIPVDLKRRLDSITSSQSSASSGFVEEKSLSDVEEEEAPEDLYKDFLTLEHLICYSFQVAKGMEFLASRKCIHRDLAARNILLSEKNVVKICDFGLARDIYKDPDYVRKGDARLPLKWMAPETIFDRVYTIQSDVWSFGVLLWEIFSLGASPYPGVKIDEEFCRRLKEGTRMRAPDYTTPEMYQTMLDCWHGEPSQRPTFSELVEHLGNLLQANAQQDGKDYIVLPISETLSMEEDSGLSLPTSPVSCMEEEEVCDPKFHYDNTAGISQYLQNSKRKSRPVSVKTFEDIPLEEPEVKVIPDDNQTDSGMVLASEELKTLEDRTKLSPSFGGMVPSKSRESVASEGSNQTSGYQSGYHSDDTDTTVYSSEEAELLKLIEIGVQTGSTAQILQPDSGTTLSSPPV

[5] = Residence in the vitreous humor; format: in vivo; conditions: estimated for its molecular weight
VEGFR2 [6] = target: T1, VEGFR2; conditions: HUVEC, in vitro angiogenic assays; read-out: IC50 VEGFR2 inhibition; cited from earlier work
VEGFR [7] = conditions: read-out: IC50 (concentration required for efficacy); cited from earlier work

CCCCCCCCCCCCCCCC(=O)OC[n+]1ccc(Oc2ccc(NC(=O)C3(C(=O)Nc4ccc(F)cc4)CC3)cc2)c2cc(OC)c(OC)cc21 [Cabozantinib N-acyl methyl palmitate]
suppression of macular edema [1]: long-lasting suppression of macular edema
suppression of fibrovascular proliferation ([1]; vs Lucentis or Eylea in the other eye, CNV 2 weeks after dosing, examined 6 weeks later): Greater suppression of fibrovascular proliferation
suppression of intraocular proliferative retinopathy [2]: suppress intraocular proliferative retinopathy
suppression of VEGFR (VEGFR [3]): suppress

Cn1cnc(-c2cc3nccc(Oc4ccc(NC(=S)NC(=O)Cc5ccccc5)cc4F)c3s2)c1 [MGCD-265]
IC50 (VEGFR2 [4]): 3 nM

Cc1ccc(Nc2nccc(N(C)c3ccc4c(C)n(C)nc4c3)n2)cc1S(N)(=O)=O [pazopantinib, Pazopantinib]
intravitreal clearance [5]: within hours

bevacizumab [Avastin]
IC50 (VEGFR2 [6]): ~1.4 nM

foretinib N-acyl methyl palmitate
suppression of intraocular proliferative retinopathy [2]: suppress intraocular proliferative retinopathy

ranibizumab [Lucentis]
IC50 (VEGFR [7]): ~19 nM
